Measurements published in patent US11547681B2, “N-acylethanolamide derivatives and uses thereof” (ELIEM THERAPEUTICS, INC., priority 2016, dated 2023).

Key:
in vitro = conditions: male, Sprague-Dawley, rat
Experimental: The reaction mixture, minus cofactors, was prepared as described below. The test article was added into the reaction mixture at a final concentration of 1 μM. […] An aliquot of the reaction mixture (without cofactor cocktail) was equilibrated in a shaking water bath at 37° C. for 3 minutes. The reaction was initiated by the addition of cofactor cocktail, and the mixture was incubated in a shaking water bath at 37° C. Aliquots (100 μL) were withdrawn at 0, 10, 20, 30, and 60 minutes. All samples were immediately combined with 400 uL of icecold 50/50 acetonitrile/H2O containing 0.1% formic acid and internal standard to terminate the reaction. The samples were then mixed and centrifuged to precipitate proteins. Calibration standards were prepared in matched matrix. All samples and standards were assayed by LC-MS/MS using electrospray ionization for both the dosed prodrug I-9 and the expected drug (PEA). Analytical conditions are outlined in Appendix 4-1. The test article concentration at each time point was compared to the test article concentration at time 0 to determine the percent remaining at each time point. Half-lives were calculated using GraphPad software, fitting to single-phase exponential decay equation.
(§1) Reaction mixture, minus cofactors, was prepared as described below. Test article was added into the reaction mixture at a final concentration of 1 μM. […] An aliquot of the reaction mixture (without cofactor cocktail) was equilibrated in a shaking water bath at 37° C. for 3 minutes. The reaction was initiated by the addition of cofactor cocktail, and the mixture was incubated in a shaking water bath at 37° C. Aliquots (100 μL) were withdrawn at 0, 10, 20, 30, and 60 minutes. Test article samples were immediately combined with 300 μL of ice-cold acetonitrile containing 1% formic acid. Control samples were immediately combined with 400 μL of ice-cold 50/50 acetonitrile (ACN)/dH2O containing 0.1% formic acid and internal standard to terminate the reaction. Samples were then mixed and centrifuged to precipitate proteins. Calibration standards were prepared in matched matrix. Samples and standards were assayed by LC-MS/MS using electrospray ionization for both the dosed prodrug and the expected drug (PEA). Analytical conditions are outlined in Appendix 8-1. Test article concentration at each time point was compared to test article concentration at time 0 to determine the percent remaining at each time point. Halflives were calculated using GraphPad software, fitting to a single-phase exponential decay equation.
as §1, with “for 5” for “for 3”, “minutes. Reaction” for “minutes. The reaction”, “and” for “and the”, “both” for “both the”, “Appendix 10-1.” for “Appendix 8-1.”
Reaction mixture, minus cofactors, was prepared as described below.

[1] = Simulated intestinal fluid stability, SIF containing pancreatin; assay type: in vitro ADME; conditions: for % Remaining of Initial (n = 1): 1 μM (Example 14); for Measured Concentration of Drug: test article dosed at 1 μM (Example 14)
Experimental: (§2) Studies were carried out in simulated intestinal fluid containing pancreatin. Simulated intestinal fluid was prepared by dissolving 6.8 g of monobasic potassium phosphate in 1.0 L of water. Pancreatin was then added to the solution and the pH was adjusted to 6.8. A DMSO stock was first prepared for the test articles. Aliquots of the DMSO solution were dosed into 300 μL of matrix, which had been pre-warmed to 37° C., at a final test article concentration of 1 μM. An individual tube was dosed for each time point. At each time point (0, 15, 30, 60, and 120 minutes), 900 μL of ice-cold acetonitrile containing 1.0% formic acid was added to an individual tube. Starting time for each tube was staggered such that all timepoints would finish at the same time. After the conclusion of the experiment, tubes were mixed and then centrifuged at 3,000 rpm for 10 minutes. Calibration standards were prepared in matched matrix. […] Analytical conditions are outlined in Appendix 11-1.
as §2, with “prepared for test articles.” for “prepared for the test articles.”, “Aliquots of DMSO solution” for “Aliquots of the DMSO solution”, “individual tube. The starting time for” for “individual tube. Starting time for”, “that all time points would finish” for “that all timepoints would finish”, “in Appendix 14-1.” for “in Appendix 11-1.”

[2] = Summary of half life data (Table A), matrix not stated; assay type: in vitro ADME
[3] = male, Sprague-Dawley, rat, in vivo, po
Experimental: PEA was also dosed intravenously at 1 mg/kg. Blood samples were collected up to 8 hours post-dose, and PEA and PEA-prodrug plasma concentrations were determined with a qualified LC-MS/MS method. Pharmacokinetic analysis was conducted by a non-compartmental model using Phoenix WinNonlin v.6.4 software.
The IV dosing solution was prepared fresh on the day of dosing at 0.5 mg/mL in a vehicle comprised of 10% solutol HS15, 10% n-methylpyrrolidone (NMP), 10% polyethylene glycol 400 (PEG400), and 70% water. For PO dosing, torpac capsules were loaded with an appropriate amount of PEA, PEA-prodrug, or normast powder. […] The prodrug dose in group 5 was the maximum amount of powder that would fit into a single capsule.
The pharmacokinetics of PEA and the PEA-prodrug were evaluated in fasted male Sprague-Dawley rats. Rats were housed one per cage. Each rat was fitted with a jugular vein cannula (JVC) for blood collection. Rats intended for IV dosing were fitted with an additional JVC for dosing. Each study group was dosing in triplicate. Rats were fasted for a minimum of twelve hours prior to dosing. Food was returned at four hours post dosing. Animals had free access to water throughout the study.
Blood samples (˜300 μL) were collected from the rats via a JVC and placed into chilled polypropylene tubes containing sodium heparin as an anticoagulant, and 30 μL of 0.5 M citric acid. Samples were maintained chilled throughout processing. Blood samples were centrifuged at 4° C. and 3,000 g for 5 minutes. Plasma (˜150 μL) was then transferred to a chilled, labeled polypropylene tube containing 15 μL of 10% formic acid, placed on dry ice, and stored in a freezer maintained at −60° C. to −80° C.
Pharmacokinetic parameters were determined with Phoenix WinNonlin (v6.4) software using a non-compartmental model. Maximum plasma concentrations (C0) after IV dosing were estimated by extrapolation of the first two time points back to t=0. […] Area under the time concentration curve (AUC) was calculated using the linear trapezoidal rule with calculation to the last quantifiable data point, and with extrapolation to infinity if applicable. […] Mean residence time, MRT, was calculated by dividing the area under the moment curve (AUMC) by the AUC. Clearance (CL) was calculated from dose/AUC. Steady-state volume of distribution (Vss) was calculated from CL*MRT (mean residence time). Bioavailability was determined by dividing the individual PO dose normalized AUClast values by the average IV AUClast value. Any samples below the limit of quantitation were treated as zero for pharmacokinetic data analysis.
Measured concentrations of PEA in plasma samples were corrected by subtracting the concentration of PEA measured in the pre-dose samples. […] Any corrected values that were negative are reported as not determined (ND).

Measured concentration of PEA (analyte) (in vitro; 0 min, 1 μM) [µM]	Measured concentration of PEA (analyte) (in vitro; 10 min, 1 μM) [µM]	Measured concentration of PEA (analyte) (in vitro; 20 min, 1 μM) [µM]	Measured concentration of PEA (analyte) (in vitro; 30 min, 1 μM) [µM]	Measured concentration of PEA (analyte) (in vitro; 60 min, 1 μM) [µM]	% Remaining of Initial (in vitro; s9, 0 h, 1 μM) [%]	% Remaining of Initial (in vitro; s9, 10 min, 1 μM) [%]	% Remaining of Initial (in vitro; s9, 20 min, 1 μM) [%]	% Remaining of Initial (in vitro; s9, 0.5 h, 1 μM) [%]	% Remaining of Initial (in vitro; s9, 1 h, 1 μM) [%]	microsomal CLint at 1 μM (in vitro; s9, CLint) [µL/min/mg]	half-life at 1 μM (in vitro; s9, Half-life) [min]	% Remaining of Initial (n = 1) ([1]; 0 min) [%]	Measured Concentration of Drug ([1]; 0 min) [µM]	% Remaining of Initial (n = 1) ([1]; 15 min) [%]	Measured Concentration of Drug ([1]; 15 min) [µM]	% Remaining of Initial (n = 1) ([1]; 30 min) [%]	Measured Concentration of Drug ([1]; 30 min) [µM]	half-life [2] [min]	Bioavailability [3] [%]	SMILES	other results
0.022	0.22	0.34	0.42	0.45	100	58	37	22	6.2	50.3	14	100	0.94	17	0.16	6.8	0.064	6.2	17.3	CCCCCCCCCCCCCCCC(=O)NCCOC(=O)CCC(=O)OC(CO)CO [Compound I-8]	% Remaining of Initial (n = 1) ([1]; 60 min): <1.3%; Measured Concentration of Drug ([1]; 60 min): 0 µM; % Remaining of Initial (n = 1) ([1]; 120 min): <1.3%; Measured Concentration of Drug ([1]; 120 min): 0 µM; half-life at 1 μM ([1]; simulated intestinal fluid with pancreatin, pH 6.8, 1 μM (Example 14)): 6.2 min; Dose-normalized AUC∞ of PEA [3]: 11.2 kg·ng·h/mL/mg
–	–	–	–	–	–	–	–	–	–	–	–	–	–	–	–	–	–	< 1	4.5	CCCCCCCCCCCCCCCC(=O)NCCOC(=O)CCC(=O)OCC(COC(=O)CCC)OC(=O)CCC (stereo not shown) [Compound I-11]	Concentration (μM) of analyte PEA, 0 min (in vitro; 0 min, 1 μM): 0 µM; Concentration (μM) of analyte PEA, 10 min (in vitro; 10 min, 1 μM): 0.13 µM; Concentration (μM) of analyte PEA, 20 min (in vitro; 20 min, 1 μM): 0.24 µM; Concentration (μM) of analyte PEA, 30 min (in vitro; 30 min, 1 μM): 0.35 µM; Concentration (μM) of analyte PEA, 60 min (in vitro; 60 min, 1 μM): 0.38 µM; % Remaining of Initial (n = 1), 0 min (in vitro; s9, 0 h, 1 μM): 100%; % Remaining of Initial (n = 1), 10 min (in vitro; s9, 10 min, 1 μM): 1.4%; % Remaining of Initial (n = 1), 20 min (in vitro; s9, 20 min, 1 μM): <1.0%; % Remaining of Initial (n = 1), 30 min (in vitro; s9, 0.5 h, 1 μM): <1.0%; % Remaining of Initial (n = 1), 60 min (in vitro; s9, 1 h, 1 μM): <1.0%; microsomal CLint at 1 μM (in vitro; s9, CLint (mL/min/mg protein)): 425 µL/min/mg; half-life at 1 μM (in vitro; s9, Half-life (min)): 1.6 min
0	0.20	0.28	0.34	0.38	100	<1.0	<1.0	<1.0	<1.0	> 691	< 1	100	0.088	<4.5	0	<4.5	0	< 1	12.1	CCCCCCCCCCCCCCCC(=O)NCCOC(=O)CCC(=O)OC(COC(=O)CCC)COC(=O)CCC [Compound I-16]	% Remaining of Initial (n = 1) ([1]; 60 min): <4.5%; Measured Concentration of Drug ([1]; 60 min): 0 µM; % Remaining of Initial (n = 1) ([1]; 120 min): <4.5%; Measured Concentration of Drug ([1]; 120 min): 0 µM
